Experimental data as given in publication PMC8909107, “Imaging Kv1.3 Expressing Memory T Cells as a Marker of Immunotherapy Response” (Cancers, 2022).
Bridges are numbered along the chain shown (N, C = ends). Where no end group is shown, it is not given here. The star is where a group is joined. NOTA = O=C(O)CN1CCN(CC(=O)O)CCN(CC(=O)*)CC1

Assays:
[1] = biological target: T1, KV1.3 channels (L929 fibroblasts stably expressing KV1.3) (Mus musculus, UniProt P16390); experiment: Patch-clamp (QPatch HTX), run-down of Kv1.3 currents after overnight exposure; format: cell-based; settings: L929-KV1.3 cells, overnight exposure 0.1, 1 or 10 μM; current density (pA/pF) at pulses 18-20 normalized to control; n = 13; read-out: IC50 (50% suppression) from normalized current density
T1 construct: expressed in transfected cells
T1 sequence (P16390 whole entry): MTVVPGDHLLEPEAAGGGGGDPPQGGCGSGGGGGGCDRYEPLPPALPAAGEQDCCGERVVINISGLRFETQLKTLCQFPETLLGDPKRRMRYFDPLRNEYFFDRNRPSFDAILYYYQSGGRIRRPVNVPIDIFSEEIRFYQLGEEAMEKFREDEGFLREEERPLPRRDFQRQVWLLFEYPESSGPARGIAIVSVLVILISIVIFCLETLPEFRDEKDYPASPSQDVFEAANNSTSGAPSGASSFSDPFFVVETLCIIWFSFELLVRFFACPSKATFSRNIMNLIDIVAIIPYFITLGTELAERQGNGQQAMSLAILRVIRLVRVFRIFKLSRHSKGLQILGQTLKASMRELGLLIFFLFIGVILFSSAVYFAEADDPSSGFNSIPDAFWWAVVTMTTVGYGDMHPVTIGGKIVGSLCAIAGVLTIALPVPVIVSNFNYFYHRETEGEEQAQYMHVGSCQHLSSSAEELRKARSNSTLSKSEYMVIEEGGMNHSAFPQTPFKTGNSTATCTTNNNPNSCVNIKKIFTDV
Protocol: The effects of the peptides NOTA-KCNA3P and EgK5 on KV1.2, KV1.3 and KV1.5 [19] channels were evaluated by patch-clamp as detailed in the Supplementary Materials (Supplementary Figure S3) using a QPatch HTX automated electrophysiology platform.
We used patch-clamp analysis to determine if NOTA-KCNA3P modulates Kv1.3 channels such as EgK5. We exposed L929 fibroblasts stably expressing KV1.3 channels overnight to NOTA-KCNA3P (0.1, 1 or 10 μM) or EgK5 (10 μM) dissolved in P6N buffer, or to media containing an equal volume of P6N buffer. […] Concentration–response curves generated with either normalized current amplitude or normalized current density yielded IC50 (50% suppression) values of […] and 50 nM, respectively, for NOTA-KCNA3P (Supplementary Figure S3D,E). […]
[18F]AlF-NOTA-KCNA3P was between 8.2 - 8.3 min. […] The radiochemical purity of [18F]AlF-NOTA-KCNA3P was assessed by analytical radio-HPLC (Aeris™ 5µm PEPTIDE XB-C18, 100 Å, 250 x 4.6 mm; 1 ml / min, λ = 220 nm). […]
NOTA-KCNA3P and EgK5 were prepared as 1-10 mM stock solutions in P6N buffer (10 mM sodium phosphate, 0.8% w/v, NaCl, and 0.05% v/v Tween 20, pH 6), diluted with 0.1% (w/v) BSA in external buffer. The effects of peptides on KV1.2, KV1.3 and KV1.5[1] channels were evaluated by patch-clamp using a QPatch HTX automated electrophysiol-ogy platform (Sophion, Denmark) (Supplementary Figure S3). […]

[2] = format: in vivo, BalbC mice bearing CT26 tumours
Protocol: (§1) Mice were imaged under isoflurane anaesthesia and injected with [^18F]AlF-NOTA-KCNA3P (~10 MBq) via the lateral tail vein. Dynamic time–activity curves were acquired to assess tracer uptake and clearance profiles (Supplementary Figure S4) and tail vein blood samples taken to assess in vivo metabolic stability (Supplementary Figure S7). To stratify response to therapy, animals were imaged on day 12 using a Siemens Inveon PET-CT as previously described. Briefly, 20 min static PET acquisitions were acquired from 60 min post-injection and analysis of the reconstructed calibrated images was performed and volumes of interest delineated by CT imaging were used to determine tissue uptake (whole body distribution shown for reference in Supplementary Figure S8). Data are expressed as % of the injected dose per gram (%ID/g) of tumour tissue in the volume of interest.
Tumour uptake of [^18F]AlF-NOTA-KCNA3P was heterogeneous depending on treatment regime and treatment efficacy (Figure 3A) with a tumour-to-blood ratio (TBR) of ~2 in tumour responders and a TBR of ~1 in tumour non-responders (TNRs). Low tumour uptake of [^18F]AlF-NOTA-KCNA3P was measured in the TNRs and the control treatment arm. […] Tumour uptake of [^18F]AlF-NOTA-KCNA3P was sufficient to distinguish from background and differentiated responsive tumours from treated non-responders (Table 1 and Figure 3B,C) in vivo. Ex vivo biodistribution was used to confirm the imaging results (Supplementary Figure S5). Importantly, no difference was seen between non-responders and responders in the biodistribution of [^18F]AlF-NOTA-KCNA3P in muscle, blood, lung, skin, heart and brain, the only difference being in the tumour (Supplementary Figure S5). […]
1.7 In vivo biodistribution of [18F]AlF-NOTA-KCNA3P
The biodistribution of [18F]AlF-NOTA-KCNA3P was assessed in BalbC mice bearing CT26 tumours treated with combined PD-1 and CTLA4 therapy. The animals were im-aged dynamically for 120 minutes and the distribution and excretion characteristics as- […]
the kidneys and hepatobiliary routes (Supplementary Figure S4). Blood clearance is […]
Supplementary Figure S5. Ex vivo biodistribution analysis of [18F]AlF-NOTA-KCNA3P retention in selected organs. ICI treated responder (TR, black) and treated non responder (TNR, white) animals were sacrificed 80min post-injection, tissues excised, weighed and radioactivity quantified using a Wallac gamma counter. Bars represent the mean of 5 animals ± SEM, * P<0.05.
1.9 Western blot analysis of Kv1.3 […]
The following anti- […]
bodies were used: anti-Kv1.3 KCNA3 (APC-101, Alomone) and anti-GAPDH (SC-47724, […]
Supplementary Figure S6. […]

[3] = PET-CT tumour retention of the tracer after ICI treatment; format: in vivo, BALB/c mice; settings: BALB/c, mouse, CT26 tumour, iv, 10 MBq, total radioactivity, PET-CT day 12, 20 min static from 60 min post-injection, ~10 MBq i.v., mean ± SD
Text: All animal procedures strictly followed IACUC guidelines (IACUC No. 181399) and conformed to NIH guidelines and public law. Development of the animal model has been described previously. Briefly, BALB/c mice aged 6–8 weeks were purchased from In Vivos (Singapore) and implanted subcutaneously into the right shoulder with the murine colon cancer cell line CT26 (ATCC, 2 × 10^5 cells per animal 1:1 (v:v) ratio in Matrigel). Tumour volumes were repeatedly measured on days 6, 9, 12, 15, 19 and 21 post tumour implantation. The mice were randomised and dosed by intraperitoneal (i.p.) injection on days 6, 9 and 12 following tumour inoculation. Treatment groups included control (5 mg/kg, rat IgG2a isotype control, α-trinitrophenol mAb, IP), αPD1 mAb monotherapy (10 mg/kg, rat IgG2a anti-mouse PD-1, RMP1-14) and combined αPD1 and αCTLA4 mAb therapy (10 mg/kg and 5 mg/kg, respectively, mouse IgG2b anti-mouse CTLA-4, 9D9, Bio-X Cell).
as §1
Tumour uptake of [^18F]AlF-NOTA-KCNA3P was heterogeneous depending on treatment regime and treatment efficacy (Figure 3A) with a tumour-to-blood ratio (TBR) of ~2 in tumour responders and a TBR of ~1 in tumour non-responders (TNRs). Low tumour uptake of [^18F]AlF-NOTA-KCNA3P was measured in the TNRs and the control treatment arm. […] Tumour uptake of [^18F]AlF-NOTA-KCNA3P was sufficient to distinguish from background and differentiated responsive tumours from treated non-responders (Table 1 and Figure 3B,C) in vivo. Ex vivo biodistribution was used to confirm the imaging results (Supplementary Figure S5). Importantly, no difference was seen between non-responders and responders in the biodistribution of [^18F]AlF-NOTA-KCNA3P in muscle, blood, lung, skin, heart and brain, the only difference being in the tumour (Supplementary Figure S5).

[4] = parameters: species or system mice; settings: in vivo, ~20MBq i.v., blood samples at 0, 30, 60 and 120 min p.i., radioHPLC, over 120 minutes
Text: as §1, with “Briefly, 20 min static PET acquisitions were acquired from 60 min post-injection and analysis of the reconstructed calibrated images was performed and volumes of interest delineated by CT imaging were used to determine tissue uptake (whole body distribution shown for reference in Supplementary Figure S8).” left out
Supplementary Figure S5. […] ICI treated responder (TR, black) and treated non responder (TNR, white) animals were sacrificed 80min post-injection, tissues excised, weighed and radioactivity quantified using a Wallac gamma counter. […]
Tumour Kv1.3 expression on infiltrating lymphocytes (TILs) were quantified using standard western blotting procedures as previously described. […]
An equal amount of 10% sulfosalicylic acid was added to the supernatant plasma samples and vortexed to precipitate out remaining proteins. The samples were centrifuged at 2,500 x g for 5 min at 4 °C, and the supernatant analyzed via radioHPLC. […]

Row | Substance | IC50 [1] | Blood clearance ([2]; dynamic PET 120 minutes) | muscle uptake ([2]; dynamic PET 120 minutes) | excretion profile ([2]; dynamic PET 120 minutes, CT26 tumour mice treated with combined PD-1 and CTLA4 therapy) | difference between non-responders and responders in biodistribution in muscle, blood, lung, skin, heart and brain ([2]; ex vivo biodistribution, 80min post-injection, gamma counter, 5 animals) | tissue uptake ([3]; Control group (isotype IgG), n = 10 mice/group) | tissue uptake ([3]; Treatment non-responders (TNR)) | tissue uptake ([3]; Treatment responsive tumours (TR), αPD1 + αCTLA4) | tissue uptake ([3]; Treatment responsive tumours (TR), αPD1) | metabolism of parent tracer in plasma [4]
1 | {NOTA}-RTCESASHKFEGPCLRDSNCANVCKTEGFHGGKCKGLRRRCFCTKHC (disulfide 3-47, 14-34, 20-41, 24-43) [NOTA-KCNA3P] | 0.05 µM | – | – | – | – | – | – | – | – | –
2 | {NOTA}-RTCESASHKFEGPCLRDSNCANVCKTEGFHGGKCKGLRRRCFCTKHC (disulfide 3-47, 14-34, 20-41, 24-43) [[^18F]AlF-NOTA-KCNA3P] | – | rapid | relatively low | excretion via the kidneys and hepatobiliary routes | no difference | 0.51 ± 0.19 %ID/g | 0.53 ± 0.2 %ID/g | 1.3 ± 0.36 %ID/g | 0.87 ± 0.15 %ID/g | less than 30%
